Legend:
Format in all cases: cell-based
human TLR8 = target: T1, human TLR8 (Homo sapiens, UniProt Q9NR97); test: TLR8 inhibition reporter assay (HEK-Blue SEAP reporter); settings: HEK-Blue cells overexpressing human TLR8; R848 15.9 μM; 22 hour incubation
T1 construct: host or cells: HEK-Blue cells
T1 sequence (Q9NR97 27-1041): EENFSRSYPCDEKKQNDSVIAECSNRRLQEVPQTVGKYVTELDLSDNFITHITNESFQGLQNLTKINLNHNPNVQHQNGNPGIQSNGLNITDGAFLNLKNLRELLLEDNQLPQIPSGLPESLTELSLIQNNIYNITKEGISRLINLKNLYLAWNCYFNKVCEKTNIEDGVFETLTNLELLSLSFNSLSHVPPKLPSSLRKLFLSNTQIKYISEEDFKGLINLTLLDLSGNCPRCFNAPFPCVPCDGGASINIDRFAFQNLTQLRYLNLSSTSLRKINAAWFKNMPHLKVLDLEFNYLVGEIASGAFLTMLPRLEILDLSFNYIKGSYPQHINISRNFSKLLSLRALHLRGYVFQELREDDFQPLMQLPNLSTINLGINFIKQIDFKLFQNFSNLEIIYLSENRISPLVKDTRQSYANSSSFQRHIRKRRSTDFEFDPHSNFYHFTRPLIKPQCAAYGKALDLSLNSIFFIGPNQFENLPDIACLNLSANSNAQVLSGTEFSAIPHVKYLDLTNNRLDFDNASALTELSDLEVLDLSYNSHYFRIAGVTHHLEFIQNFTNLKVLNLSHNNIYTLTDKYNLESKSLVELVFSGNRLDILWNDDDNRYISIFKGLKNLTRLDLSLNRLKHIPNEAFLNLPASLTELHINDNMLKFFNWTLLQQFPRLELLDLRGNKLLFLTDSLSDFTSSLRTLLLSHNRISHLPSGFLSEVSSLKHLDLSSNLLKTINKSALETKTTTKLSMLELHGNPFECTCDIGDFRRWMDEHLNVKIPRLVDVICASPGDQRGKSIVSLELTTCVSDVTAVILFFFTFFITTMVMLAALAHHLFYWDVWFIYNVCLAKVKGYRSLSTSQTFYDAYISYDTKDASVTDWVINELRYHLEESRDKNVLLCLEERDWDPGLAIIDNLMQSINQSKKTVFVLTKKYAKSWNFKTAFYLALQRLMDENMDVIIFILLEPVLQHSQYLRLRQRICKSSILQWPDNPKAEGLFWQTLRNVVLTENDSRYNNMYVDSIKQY
In short: (§1)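 Agonists used: gardiquimod 7.5 μM (TLR7), R848 15.9 μM (TLR8), ODN2006 5 nM (TLR9), added after 30 min room-temperature compound pre-treatment (0.05 nM–50 μM) of receptor-overexpressing HEK-Blue cells. SEAP reporter (NF-κB/AP-1 driven) read after 22 h at 37 °C; inhibition scaled between agonist+DMSO and reference-inhibitor wells.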

human TLR9 = target: T2, human TLR9 (Homo sapiens, UniProt Q9NR96); test: TLR9 inhibition reporter assay (HEK-Blue SEAP reporter); settings: HEK-Blue cells overexpressing human TLR9; ODN2006 5 nM; 22 hour incubation
T2 construct: host or cells: HEK-Blue cells
T2 sequence (Q9NR96 26-1032): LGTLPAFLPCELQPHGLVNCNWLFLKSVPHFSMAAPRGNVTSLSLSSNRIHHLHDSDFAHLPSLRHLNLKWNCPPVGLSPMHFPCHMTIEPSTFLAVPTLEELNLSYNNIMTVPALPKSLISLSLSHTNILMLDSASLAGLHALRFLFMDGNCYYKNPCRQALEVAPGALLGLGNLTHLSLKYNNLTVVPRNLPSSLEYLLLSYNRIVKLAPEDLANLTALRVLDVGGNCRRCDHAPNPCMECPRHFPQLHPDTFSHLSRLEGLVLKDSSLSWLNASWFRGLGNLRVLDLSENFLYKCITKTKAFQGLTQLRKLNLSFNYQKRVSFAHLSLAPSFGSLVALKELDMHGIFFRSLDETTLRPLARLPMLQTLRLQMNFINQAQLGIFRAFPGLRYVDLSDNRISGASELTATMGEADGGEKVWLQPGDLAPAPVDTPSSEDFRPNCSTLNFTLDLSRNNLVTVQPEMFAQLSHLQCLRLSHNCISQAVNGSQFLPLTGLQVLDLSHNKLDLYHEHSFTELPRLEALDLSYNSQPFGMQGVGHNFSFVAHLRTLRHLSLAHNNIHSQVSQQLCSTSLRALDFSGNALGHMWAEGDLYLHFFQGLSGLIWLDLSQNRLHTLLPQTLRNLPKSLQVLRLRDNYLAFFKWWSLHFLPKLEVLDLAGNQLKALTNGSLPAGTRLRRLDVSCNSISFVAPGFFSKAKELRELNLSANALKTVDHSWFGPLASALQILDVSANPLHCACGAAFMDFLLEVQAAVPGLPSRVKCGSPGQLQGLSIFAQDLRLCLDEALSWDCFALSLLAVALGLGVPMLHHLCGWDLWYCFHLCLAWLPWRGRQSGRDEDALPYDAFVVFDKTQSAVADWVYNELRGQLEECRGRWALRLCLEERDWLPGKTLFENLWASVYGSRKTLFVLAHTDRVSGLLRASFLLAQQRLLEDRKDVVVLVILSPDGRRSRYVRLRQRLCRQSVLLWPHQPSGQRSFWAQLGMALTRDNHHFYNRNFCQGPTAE
In short: as §1

human TLR7 = target: T3, human TLR7 (Homo sapiens, UniProt Q9NYK1); test: TLR7 inhibition reporter assay (HEK-Blue SEAP reporter); settings: HEK-Blue cells overexpressing human TLR7; gardiquimod 7.5 μM; 22 hour incubation
T3 construct: host or cells: HEK-Blue cells
T3 sequence (Q9NYK1 27-1049): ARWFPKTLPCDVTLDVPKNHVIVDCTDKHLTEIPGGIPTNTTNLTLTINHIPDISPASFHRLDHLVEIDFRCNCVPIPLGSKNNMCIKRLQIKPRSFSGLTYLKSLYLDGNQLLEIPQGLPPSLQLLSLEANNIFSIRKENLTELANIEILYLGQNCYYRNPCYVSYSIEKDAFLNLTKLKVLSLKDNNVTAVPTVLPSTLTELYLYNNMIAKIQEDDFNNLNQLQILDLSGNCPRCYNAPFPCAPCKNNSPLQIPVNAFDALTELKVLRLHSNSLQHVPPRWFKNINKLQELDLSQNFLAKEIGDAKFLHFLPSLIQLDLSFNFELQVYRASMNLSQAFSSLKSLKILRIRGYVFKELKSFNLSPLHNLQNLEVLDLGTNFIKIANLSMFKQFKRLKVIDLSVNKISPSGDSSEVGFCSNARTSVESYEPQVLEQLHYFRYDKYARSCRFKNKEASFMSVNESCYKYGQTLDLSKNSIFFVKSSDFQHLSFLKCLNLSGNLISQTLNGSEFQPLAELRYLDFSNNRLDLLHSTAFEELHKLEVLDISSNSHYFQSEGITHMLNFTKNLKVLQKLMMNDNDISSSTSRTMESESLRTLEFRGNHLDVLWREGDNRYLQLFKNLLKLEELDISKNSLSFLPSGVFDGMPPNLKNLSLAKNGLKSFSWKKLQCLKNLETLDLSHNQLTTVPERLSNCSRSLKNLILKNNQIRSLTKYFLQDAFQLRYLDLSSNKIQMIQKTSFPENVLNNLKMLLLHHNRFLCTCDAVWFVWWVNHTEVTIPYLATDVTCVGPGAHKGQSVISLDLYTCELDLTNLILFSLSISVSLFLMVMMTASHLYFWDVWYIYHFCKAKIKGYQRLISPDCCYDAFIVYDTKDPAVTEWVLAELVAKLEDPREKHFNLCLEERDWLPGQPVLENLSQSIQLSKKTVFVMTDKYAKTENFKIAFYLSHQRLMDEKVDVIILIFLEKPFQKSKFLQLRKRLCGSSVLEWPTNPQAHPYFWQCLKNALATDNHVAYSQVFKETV
In short: as §1

Row | Compound | IC50 (human TLR8) [µM] | IC50 (human TLR9) [µM] | IC50 (human TLR7) [µM]
1 | CCNCCOc1ccc(Nc2ccc3[nH]c(-c4ccc(OC)c(OC)c4)c(C(C)C)c3c2)cc1 [Example 105, 2-(3,4-dimethoxyphenyl)-N-(4-(2-(ethylamino)ethoxy)phenyl)-3-isopropyl-1H-indol-5-amine] | 0.017 | 2.26 | 1.4
2 | COc1ccc(-c2[nH]c3ccc(Nc4ccc(OCCN5CCCC5)cc4)cc3c2C(C)C)cc1OC [Example 106, 2-(3,4-dimethoxyphenyl)-3-isopropyl-N-(4-(2-(pyrrolidin-1-yl)ethoxy)phenyl)-1H-indol-5-amine] | 0.035 | 1.43 | 1.4
3 | COc1ccc(-c2[nH]c3ccc(N4CCC(=O)N(CCN(C)C)CC4)cc3c2C(C)C)cc1OC [Example 107, 1-(2-(3,4-dimethoxyphenyl)-3-isopropyl-1H-indol-5-yl)-4-(2-(dimethylamino)ethyl)-1,4-diazepan-5-one] | 0.055 | 3.46 | 0.031
4 | COc1ccc(-c2[nH]c3ccc(N4CCC(N(C)C)CC4)cc3c2C(C)C)cc1OC [Example 108, 1-(2-(3,4-dimethoxyphenyl)-3-isopropyl-1H-indol-5-yl)-N,N-dimethylpiperidin-4-amine] | 0.01 | 2.53 | 0.023
5 | COc1ccc(-c2[nH]c3ccc(N4CCC(N)(CC#N)CC4)cc3c2C(C)C)cc1OC [Example 109, 2-(4-amino-1-(2-(3,4-dimethoxyphenyl)-3-isopropyl-1H-indol-5-yl)piperidin-4-yl)acetonitrile] | 0.211 | 15.1 | 0.028
6 | COc1ccc(-c2[nH]c3ccc(N4CCC(C(C)(C)O)CC4)cc3c2C(C)C)cc1OC [Example 110, 2-(1-(2-(3,4-dimethoxyphenyl)-3-isopropyl-1H-indol-5-yl)piperidin-4-yl)propan-2-ol] | 0.328 | 29.5 | 0.194
7 | Cc1c(-c2[nH]c3ccc(N4CCC(N(C)C)CC4)cc3c2C(C)C)cn(C)c(=O)c1Cl [Example 111, 3-chloro-5-(5-(4-(dimethylamino)piperidin-1-yl)-3-isopropyl-H-indol-2-yl)-1,4-dimethyl-114,215-pyridin-2-one] | 0.0018 | 3.46 | 0.0024
8 | CNC1(CC#N)CCN(c2ccc3[nH]c(-c4ccc(OC)c(OC)c4)c(C(C)C)c3c2)CC1 [Example 112, 2-(1-(2-(3,4-dimethoxyphenyl)-3-isopropyl-1H-indol-5-yl)-4-(methylamino)piperidin-4-yl)acetonitrile] | 0.0094 | 6.18 | 0.062
9 | COc1ccc(-c2[nH]c3ccc(N4CCCCC4c4ccncc4)cc3c2C(C)C)cc1OC (stereo not drawn) [Example 113, 2-(3,4-dimethoxyphenyl)-3-isopropyl-5-(2-(pyridin-4-yl)piperidin-1-yl)-1H-indole] | 1.28 | > 50 | 1.2
10 | COc1ccc(-c2[nH]c3ccc(N4CCC(OCCN(C)C)CC4)cc3c2C(C)C)cc1OC [Example 114, 2-((1-(2-(3,4-dimethoxyphenyl)-3-isopropyl-H-indol-5-yl)piperidin-4-yl)oxy)-N,N-dimethylethan-1-amine] | 0.024 | 0.951 | 0.46

Next, values leading:

Row | IC50 (human TLR8) [µM] | IC50 (human TLR9) [µM] | IC50 (human TLR7) [µM] | Compound
11 | 0.061 | 0.621 | 0.031 | COc1ccc(-c2[nH]c3ccc(N4CCC(CCN5CCCC5)CC4)cc3c2C(C)C)cc1OC [Example 115, 2-(3,4-dimethoxyphenyl)-3-isopropyl-5-(4-(2-(pyrrolidin-1-yl)ethyl)piperidin-1-yl)-1H-indole]
12 | 0.094 | 18.8 | 0.936 | COc1ccc(-c2[nH]c3ccc(N4CCC(N5CC(O)CC5=O)CC4)cc3c2C(C)C)cc1OC (stereo not drawn) [Example 116, 1-(1-(2-(3,4-dimethoxyphenyl)-3-isopropyl-1H-indol-5-yl)piperidin-4-yl)-4-hydroxypyrrolidin-2-one]
13 | 0.0053 | 5.05 | 0.188 | COc1ccc(-c2[nH]c3ccc(N4CCC(C)(N5CCOCC5)CC4)cc3c2C(C)C)cc1OC [Example 117, 4-(1-(2-(3,4-dimethoxyphenyl)-3-isopropyl-H-indol-5-yl)-4-methylpiperidin-4-yl)morpholine]
14 | 0.325 | 1.76 | 1.12 | COc1ccc(-c2[nH]c3ccc(N4CCCC5CN(Cc6ccccc6)CC54)cc3c2C(C)C)cc1OC (stereo not drawn) [Example 118, 6-benzyl-1-(2-(3,4-dimethoxyphenyl)-3-isopropyl-1H-indol-5-yl)octahydro-1H-pyrrolo[3,4-b]pyridine]
15 | 0.024 | 2.3 | 1.4 | COc1ccc(-c2[nH]c3ccc(N4CCC(C5c6ccccc6CCN5C)CC4)cc3c2C(C)C)cc1OC (stereo not drawn) [Example 119, 1-(1-(2-(3,4-dimethoxyphenyl)-3-isopropyl-1H-indol-5-yl)piperidin-4-yl)-2-methyl-1,2,3,4-tetrahydroisoquinoline]

Reference: patent US11306092B2, “Amino indole compounds useful as TLR inhibitors” (BRISTOL-MYERS SQUIBB COMPANY, priority 2017, dated 2022)
